Source: the supplement of paper PMC11061612

Columns and labels:
[1] = test system: A2780 (Ovarian Carcinoma); assay: Bliss excess, mean over the matrix (fraction); higher = more synergy
Method in brief: (§1)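 Cell lines in DMEM/F12 or RPMI with 10% FBS were plated in 1536-well plates, held 24 hours at 37°C, 5% CO2, then given two-drug dose matrices for 72 hours (DMSO typically 0.2%). Viability was read by CellTiter-Glo 2.0 luminescence and scaled as inhibition from 0 (vehicle wells) to 1 (blank wells). Combination Emax is the second-highest inhibition in the matrix; Bliss excess is observed combination effect minus expected EA + EB − EA·EB, EA and EB being single-agent effects.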

[2] = test system: EPLC-272H (Other Solid Carcinomas); assay: as above
Method in brief: as §1

[3] = test system: HT55 (Colorectal Carcinoma); assay: as above
Method in brief: as §1

[4] = test system: NCI-H716 (Colorectal Carcinoma); assay: as above
Method in brief: as §1

PEO1 (Ovarian Carcinoma) = assay: as above
Method in brief: as §1

A204 (Rhabdomyosarcoma) = assay: combination Emax (second highest fraction inhibited in the dose matrix, 72 h); higher = more inhibition; extreme values may be limits of the assay
Method in brief: as §1

[5] = test system: A253 (Head and Neck Carcinoma); assay: as above
Method in brief: as §1

AU565 (Breast Carcinoma) = assay: as above
Method in brief: as §1

[6] = test system: CA46 (Burkitt's Lymphoma); assay: as above
Method in brief: as §1

COLO-792 (Melanoma) = assay: as above
Method in brief: as §1

EW-16 (Ewing's Sarcoma) = assay: as above
Method in brief: as §1

[7] = test system: G-402 (Other Solid Carcinomas); assay: as above
Method in brief: as §1

IM-9 (Non-Cancerous) = assay: as above
Method in brief: as §1

[8] = test system: JHH-2 (Hepatocellular Carcinoma); assay: as above
Method in brief: as §1

NB13 (Neuroblastoma) = assay: as above
Method in brief: as §1

[9] = test system: NCI-H1651 (Lung Adenocarcinoma); assay: as above
Method in brief: as §1

[10] = test system: NCI-H2228 (Lung Adenocarcinoma); assay: as above
Method in brief: as §1

[11] = test system: OACp4C (Esophageal Adenocarcinoma); assay: as above
Method in brief: as §1

RH-41 (Rhabdomyosarcoma) = assay: as above
Method in brief: as §1

[12] = test system: SW620 (Colorectal Carcinoma); assay: as above
Method in brief: as §1
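For Bliss excess, mean over the matrix in this document: after 72 h of two-drug dosing.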

| SMILES | Bliss excess [1] | Bliss excess [2] | Bliss excess [3] | Bliss excess [4] | Bliss excess (PEO1 (Ovarian Carcinoma)) | combination Emax (A204 (Rhabdomyosarcoma)) | combination Emax [5] | combination Emax (AU565 (Breast Carcinoma)) | combination Emax [6] | combination Emax (COLO-792 (Melanoma)) | combination Emax (EW-16 (Ewing's Sarcoma)) | combination Emax [7] | combination Emax (IM-9 (Non-Cancerous)) | combination Emax [8] | combination Emax (NB13 (Neuroblastoma)) | combination Emax [9] | combination Emax [10] | combination Emax [11] | combination Emax (RH-41 (Rhabdomyosarcoma)) | combination Emax [12] |
| --- | --- | --- | --- | --- | --- | --- | --- | --- | --- | --- | --- | --- | --- | --- | --- | --- | --- | --- | --- | --- |
| CC1(C)CCC(CN2CCN(c3ccc(C(=O)NS(=O)(=O)c4ccc(NCC5CCOCC5)c([N+](=O)[O-])c4)c(Oc4cnc5[nH]ccc5c4)c3)CC2)=C(c2ccc(Cl)cc2)C1 [Venetoclax] + CCN(CCO)CCCOc1ccc2c(Nc3cc(CC(=O)Nc4cccc(F)c4)[nH]n3)ncnc2c1 [AZD2811] (first compound max 1 µM, 7x7, partner max 1 µM) | 0.019 | 0.0409 | 0.0034 | -0.0813 | -0.0314 | 0.368 | 0.268 | 0.181 | 0.0318 | 0.446 | 0.714 | 0.667 | 0.976 | 0.27 | 0.548 | 0.233 | 0.253 | 0.665 | 0.418 | 0.229 |
| NC1(C(=O)N[C@@H](CCO)c2ccc(Cl)cc2)CCN(c2ncnc3[nH]ccc23)CC1 [Capivasertib] + CC(=O)c1c(C)c2cnc(Nc3ccc(N4CCNCC4)cn3)nc2n(C2CCCC2)c1=O [Palbociclib] (first compound max 10 µM, 7x7, partner max 10 µM) | -0.0266 | -0.0065 | -0.0186 | -0.0018 | -0.0509 | 0.517 | 0.673 | 0.505 | 0.411 | 0.465 | 0.44 | 0.605 | 0.706 | 0.608 | 0.392 | 0.0542 | 0.506 | 0.858 | 0.945 | 0.473 |
| COc1cccc(OCCCN)c1-c1cc(Nc2cnc(C#N)cn2)n[nH]1 [Prexasertib] + C=CCn1c(=O)c2cnc(Nc3ccc(N4CCN(C)CC4)cc3)nc2n1-c1cccc(C(C)(C)O)n1 [AZD1775] (first compound max 1 µM, partner max 1 µM) | 0.155 | -0.0284 | 0.0259 | 0.0167 | 0.0825 | 0.648 | 0.93 | 0.891 | 0.757 | 0.593 | 0.75 | 0.731 | 1 | 0.9 | 0.935 | 0.822 | 0.719 | 0.835 | 1 | 0.853 |
| NC1(C(=O)N[C@@H](CCO)c2ccc(Cl)cc2)CCN(c2ncnc3[nH]ccc23)CC1 [Capivasertib] + CCN(CCO)CCCOc1ccc2c(Nc3cc(CC(=O)Nc4cccc(F)c4)[nH]n3)ncnc2c1 [AZD2811] (first compound max 10 µM, 7x7, partner max 1 µM) | 0.05 | 0.0027 | -0.0412 | -0.0402 | -0.0134 | 0.489 | 0.695 | 0.819 | 0.362 | 0.661 | 0.634 | 0.658 | 0.933 | 0.587 | 0.534 | 0.203 | 0.533 | 0.897 | 0.943 | 0.328 |
| CC(=O)Nc1cccc(-n2c(=O)n(C3CC3)c(=O)c3c(Nc4ccc(I)cc4F)n(C)c(=O)c(C)c32)c1 [Trametinib] + Cc1nc(-c2cn3c(n2)-c2ccc(-c4cnn(C(C)(C)C(N)=O)c4)cc2OCC3)n(C(C)C)n1 [Taselisib] (first compound max 1 µM, 7x7, partner max 10 µM) | 0.0164 | 0.041 | -0.0116 | 0.325 | 0.204 | 0.816 | 0.954 | 0.604 | 0.434 | 1 | 0.604 | 0.792 | 0.941 | 1 | 0.428 | 0.285 | 0.914 | 1 | 1 | 0.77 |
| C=CCn1c(=O)c2cnc(Nc3ccc(N4CCN(C)CC4)cc3)nc2n1-c1cccc(C(C)(C)O)n1 [AZD1775] + O=C(c1cc(Cc2n[nH]c(=O)c3ccccc23)ccc1F)N1CCN(C(=O)C2CC2)CC1 [Olaparib] (first compound max 1 µM, partner max 10 µM) | -0.0256 | 0.0169 | 0.0391 | -0.0695 | -0.013 | 0.24 | 0.35 | 0.449 | 0.53 | 0.284 | 0.529 | 0.41 | 0.986 | 0.574 | 0.935 | 0.736 | 0.592 | 0.806 | 0.953 | 0.603 |
| COc1nnc2ccc(N3CCC(c4ccc(OCCN5CCN(C)C(=O)[C@H]5C)cc4)CC3)nn12 [AZD5153] + Cn1cnc2c(F)c(Nc3ccc(Br)cc3Cl)c(C(=O)NOCCO)cc21 [Selumetinib] (first compound max 1 µM, 7x7, partner max 10 µM) | -0.0118 | 0.0173 | 0.0584 | 0.016 | -0.0509 | 0.484 | 0.456 | 0.328 | 0.633 | 0.882 | 0.506 | 0.797 | 0.952 | 0.427 | 0.565 | 0.138 | 0.428 | 0.945 | 0.92 | 0.76 |
| CC1(C)CCC(CN2CCN(c3ccc(C(=O)NS(=O)(=O)c4ccc(NCC5CCOCC5)c([N+](=O)[O-])c4)c(Oc4cnc5[nH]ccc5c4)c3)CC2)=C(c2ccc(Cl)cc2)C1 [Venetoclax] + Cc1cc2ncnn2cc1Nc1ncc2c(n1)n(C1CCOCC1)c(=O)n2C [AZD7648] (first compound max 1 µM, 7x7, partner max 10 µM) | -0.03 | -0.0656 | -0.0069 | -0.0146 | -0.033 | 0.408 | 0.212 | 0.295 | 0.132 | 0.411 | 0.193 | 0.501 | 0.655 | 0.506 | 0.368 | 0.191 | 0.4 | 0.338 | 0.608 | 0.175 |
| CC1(C)CCC(CN2CCN(c3ccc(C(=O)NS(=O)(=O)c4ccc(NCC5CCOCC5)c([N+](=O)[O-])c4)c(Oc4cnc5[nH]ccc5c4)c3)CC2)=C(c2ccc(Cl)cc2)C1 [Venetoclax] + C=CCn1c(=O)c2cnc(Nc3ccc(N4CCN(C)CC4)cc3)nc2n1-c1cccc(C(C)(C)O)n1 [AZD1775] (first compound max 1 µM, partner max 1 µM) | 0.0477 | -0.025 | -0.0016 | 0.0214 | -0.0325 | 0.325 | 0.313 | 0.672 | 0.738 | 0.399 | 0.526 | 0.435 | 0.992 | 0.882 | 0.928 | 0.589 | 0.494 | 0.897 | 1 | 0.51 |
| CC1(C)CCC(CN2CCN(c3ccc(C(=O)NS(=O)(=O)c4ccc(NCC5CCOCC5)c([N+](=O)[O-])c4)c(Oc4cnc5[nH]ccc5c4)c3)CC2)=C(c2ccc(Cl)cc2)C1 [Venetoclax] + CN(C)CCCOc1ccc(-c2ccc3ncc4c(c3c2)n(C2CCOCC2)c(=O)n4C)cn1 [AZD0156] (first compound max 1 µM, 7x7, partner max 1 µM) | -0.02 | -0.0501 | -0.0443 | -0.0272 | -0.018 | 0.31 | 0.178 | 0.234 | 0 | 0.245 | 0.19 | 0.359 | 0.812 | 0.334 | 0.468 | 0.194 | 0.306 | 0.224 | 0.491 | 0.196 |
| COc1nnc2ccc(N3CCC(c4ccc(OCCN5CCN(C)C(=O)[C@H]5C)cc4)CC3)nn12 [AZD5153] + CCN(CCO)CCCOc1ccc2c(Nc3cc(CC(=O)Nc4cccc(F)c4)[nH]n3)ncnc2c1 [AZD2811] (first compound max 1 µM, 7x7, partner max 1 µM) | -0.0295 | -0.0387 | -0.0479 | -0.0316 | -0.0137 | 0.466 | 0.444 | 0.359 | 0.652 | 0.563 | 0.553 | 0.825 | 0.897 | 0.416 | 0.65 | 0.499 | 0.348 | 0.683 | 0.888 | 0.597 |
| C[C@@H]1COCCN1c1cc(C2([S@](C)(=N)=O)CC2)nc(-c2ccnc3[nH]ccc23)n1 [AZD6738] + O=C(c1cc(Cc2n[nH]c(=O)c3ccccc23)ccc1F)N1CCN(C(=O)C2CC2)CC1 [Olaparib] (first compound max 10 µM, 7x7, partner max 10 µM) | 0.006 | -0.0682 | 0.0204 | -0.0229 | 0.0069 | 0.417 | 0.806 | 0.449 | 0.412 | 0.278 | 0.808 | 0.627 | 0.986 | 0.674 | 0.947 | 0.729 | 0.523 | 0.71 | 0.808 | 0.57 |
| NC1(C(=O)N[C@@H](CCO)c2ccc(Cl)cc2)CCN(c2ncnc3[nH]ccc23)CC1 [Capivasertib] + Cn1cnc2c(F)c(Nc3ccc(Br)cc3Cl)c(C(=O)NOCCO)cc21 [Selumetinib] (first compound max 10 µM, 7x7, partner max 10 µM) | 0.0151 | 0.128 | -0.0042 | 0.119 | -0.0358 | 0.498 | 0.89 | 0.64 | 0.2 | 0.8 | 0.393 | 0.513 | 0.874 | 0.674 | 0.369 | 0.177 | 0.58 | 0.987 | 0.934 | 0.712 |
